Data on 2 molecules can be found in US7276371B2, “Stimulation of hematopoietic cells in vitro” (Point Therapeutics, Inc., priority 1997, dated 2007).

One experiment deals with bone marrow cells. As to the kind of experiment: Bone marrow cell growth stimulation, 4 day culture without added cytokines, cell count. Format: cell-based. Conditions: 10,000 bone marrow cells per well at start, IMDM, no growth factors, control 10,000 cells. How it is done:
Freshly isolated bone marrow cells were isolated and 10,000 cells per well were incubated in 96 microtiter plates in CellGro Iscove's Modified Dulbecco's Medium (IMDM) and with or without (control) the indicated concentrations of Pro-boroPro for 4 days. At the end of this incubation period, the cells were counted under the microscope. The cultures without Pro-boroPro contained 10,000 cells at the end of 4 days. The cultures containing Pro-boroPro had 53,000 cells at 10^−6M, 38,000 cells at 10^−8M and 42,000 cells at 10^−10 M. The cultures containing a growth factor mix (GF) contained 82,000 cells. Growth factors were supplied in OPITEN® Giant Cell Tumor-conditioned medium (IGEN)
Cultures were set up as described in the legend to FIG. 1 except that Lys-boroPro and the homoconjugate were used, and incubated for 4 days.
• 1. Obtain bone marrow or umbilical cord blood in heparinized (green top) tube. Can be stored at room temperature until use within 48 hours. • 2. Mix marrow/blood 1:1 with phosphate-buffered saline, pH 7.4(PBS) that has been stored at 4° C. • 3. Carefully layer blood-PBS mixture on a 2× volume quantity of Histopaque (Sigma) that has been stored at 4° C. • 4. Centrifuge at 400 g×20 minutes at 37° C. • 5. Carefully collect cells at interface and wash ×2 in cold PBS. • 6. Count viable cells using trypan blue. • 7. Set up cells as 1 ml cultures in plastic culture tubes (or 96 well or 24 well microtiter plates) at 10^4 cells/ml in CellGro Iscove's Modified Dulbecco's medium (Meditech) containing kanamycin (5 ug/ml), desired concentration of Xaa-boroPro or other compound of the invention, and the absence or presence of Giant Cell Tumor-Conditioned Medium (GCT-CM, Origen) as source of growth factors. Xaa-boroPro or other compounds of the invention should be diluted to medium and added to culture only after cells are in culture tube. • 8. Cells are cultured at 37° C. in a moist air incubator containing 5% CO2. • 9. At desired time, an aliquot of cells are removed and counted. • 10. […]

Experiment [1] deals with Umbilical cord blood cells. As to the kind of experiment: Bulk umbilical cord blood, total cell counts after 4 day incubation. Format: cell-based. Conditions: control culture 0.2×10^6 cells. The procedure: (§1) Umbilical cord blood cells were incubated under essentially the same conditions as described in the legend to FIG. 1, except that Val-boroPro was used as stimulant at the indicated concentrations. After 4 day incubation: • A: Bulk Umbilical Cord Blood; Total Cell Counts. Control culture: 0.2×10^6 cells; Growth factors 5×10^6 cells; Val-boroPro: 3×10^6 (10^−6M); 3×10^6 (10^−8M); 4×10^6 ([…]). • B: CD34+ isolated cells: CD34+ cells were isolated using CD34 mAb coupled beads for positive selection. Cell preparation contained 98% CD34+ cells. After 4 days of incubation the culture containing 10^−10M Val-boroPro contained 8.5×10^6 cells, compared to 0.6×10^6 cells in the control and 4×10^6 cells in the incubation with growth factors.
(§2) • 1. Obtain bone marrow or umbilical cord blood in heparinized (green top) tube. Can be stored at room temperature until use within 48 hours. • 2. Mix marrow/blood 1:1 with phosphate-buffered saline, pH 7.4(PBS) that has been stored at 4° C. • 3. Carefully layer blood-PBS mixture on a 2× volume quantity of Histopaque (Sigma) that has been stored at 4° C. • 4. Centrifuge at 400 g×20 minutes at 37° C. • 5. Carefully collect cells at interface and wash ×2 in cold PBS. • 6. Count viable cells using trypan blue. • 7. Set up cells as 1 ml cultures in plastic culture tubes (or 96 well or 24 well microtiter plates) at 10^4 cells/ml in CellGro Iscove's Modified Dulbecco's medium (Meditech) containing kanamycin (5 ug/ml), desired concentration of Xaa-boroPro or other compound of the invention, and the absence or presence of Giant Cell Tumor-Conditioned Medium (GCT-CM, Origen) as source of growth factors. Xaa-boroPro or other compounds of the invention should be diluted to medium and added to culture only after cells are in culture tube. • 8. Cells are cultured at 37° C. in a moist air incubator containing 5% CO2. • 9. At desired time, an aliquot of cells are removed and counted. • 10. Counting can be performed under the microscope (direct) or by using the MTT assay (colorimetric assay).

Another experiment has as its system CD34+ isolated cells. As to the kind of experiment: CD34+ cells isolated from umbilical cord blood, 4 day culture: cell number and percent CD34+ remaining. Format: cell-based, human. Particulars: 10^−10M; isolated CD34+ cells (98% CD34+); control 0.6×10^6 cells. The procedure: as §1
C: Percent of CD34+ cells remaining after 4 day culture: Cultures incubated with Val-boroPro contained between 10 and 15% of CD34+ cells after 4 day culture. Cultures incubated with Growth Factors had only 4% of CD34+ cells remaining (panel b).
• 1. Obtain bone marrow or umbilical cord blood in heparinized (green top) tube. Can be stored at room temperature until use within 48 hours. • 2. […] Carefully layer blood-PBS mixture on a 2× volume quantity of Histopaque (Sigma) that has been stored at 4° C. • 4. […] At desired time, an aliquot of cells are removed and counted. • 10. […]

The next experiment relates to Isolated CD34+ cells. The experiment in a line: Isolated CD34+ cells (98% purity) of bone marrow, 4 day culture: growth stimulation and percent CD34+ remaining. Format: cell-based, human. How it is done:
as §2

As to `O=C(C1CCCN1)N1CCCC1B(O)O` (stereo not drawn) [Pro-boroPro], the “number of cells at the end of 4 days” value in the experiment with bone marrow cells (10^−6M) was 53,000 cells; with bone marrow cells (10^−8M) it was 38,000 cells; in the experiment with bone marrow cells (10^−10 M) it was 42,000 cells.
For `CC(C)[C@H](N)C(=O)N1CCC[C@H]1B(O)O` [Val-boroPro], the “Total Cell Counts after 4 day incubation” value in experiment [1] (10^−6M) is 3×10^6; in experiment [1] (10^−8M), 3×10^6; in experiment [1] (10^−M (so in the source)), 4×10^6. The “number of cells after 4 days of incubation” value with CD34+ isolated cells is listed as 8.5×10^6 cells. For the same molecule, the “increase in stimulation of cellular growth over that in control cultures” value in the experiment with Isolated CD34+ cells (4 day culture, concentration not given) was “up to 20 fold”. For the same molecule, the “Percent of CD34+ cells remaining in culture after a 4 day incubation period” value in the experiment on Isolated CD34+ cells (isolated bone marrow CD34+ cells, control 63%) is 43%.
